ChEMBL document CHEMBL5500341, “Discovery of pyrido[3,2-d]pyrimidin-6(5H)-one derivatives as checkpoint kinase 1 (CHK1) inhibitors with potent antitumor efficacy” (Eur J Med Chem, 2024)

How the values were obtained:
MV4-11 = assay: Antiproliferative activity against human MV4-11 cells assessed as inhibition of cell proliferation incubated for 72 hrs by CCK-8 assay; type: functional, cell-based; settings: MV4-11, 72 h
[1] = Metabolic stability in human liver microsome assessed as parent compound remaining preincubated with compound for 10 mins followed by NADPH addition and measured immediately by LC-MS/MS analysis; type: ADME; settings: liver microsomes, read-out: Stability
[2] = Metabolic stability in human liver microsome assessed as parent compound remaining preincubated with compound for 10 mins followed by NADPH addition and measured at 5 min by LC-MS/MS analysis; type: ADME; settings: liver microsomes, time 15 min, read-out: Stability
[3] = Metabolic stability in human liver microsome assessed as parent compound remaining preincubated with compound for 10 mins followed by NADPH addition and measured at 15 min by LC-MS/MS analysis; type: ADME; settings: liver microsomes, time 25 min, read-out: Stability
[4] = Metabolic stability in human liver microsome assessed as parent compound remaining preincubated with compound for 10 mins followed by NADPH addition and measured at 30 min by LC-MS/MS analysis; type: ADME; settings: liver microsomes, time 40 min, read-out: Stability
[5] = Metabolic stability in human liver microsome assessed as parent compound remaining preincubated with compound for 10 mins followed by NADPH addition and measured at 60 min by LC-MS/MS analysis; type: ADME; settings: liver microsomes, time 70 min, read-out: Stability
[6] = Metabolic stability in human liver microsome assessed as half life preincubated with compound for 10 mins followed by NADPH addition and measured up to 60 min by LC-MS/MS analysis; type: ADME; settings: liver microsomes, time < 70 min
[7] = Metabolic stability in human microsome assessed as intrinsic clearance preincubated with compound for 10 mins followed by NADPH addition and measured up to 60 min by LC-MS/MS analysis; type: ADME; settings: microsomes, time < 70 min, read-out: CLH
[8] = Metabolic stability in human liver microsome assessed as intrinsic clearance preincubated with compound for 10 mins followed by NADPH addition and measured up to 60 min by LC-MS/MS analysis; type: ADME; settings: liver microsomes, time < 70 min, read-out: CLH
[9] = Initial plasma concentration in ICR mouse at 2 mg/kg, iv measured up to 24 hrs by LC-MS/MS analysis; type: ADME, organism-based
[10] = Cmax in ICR mouse at 2 mg/kg, iv measured up to 24 hrs by LC-MS/MS analysis; type: ADME, organism-based; settings: in vivo
[11] = Cmax in ICR mouse at 10 mg/kg, po measured up to 24 hrs by LC-MS/MS analysis; type: ADME, organism-based; settings: in vivo
[12] = Half life in ICR mouse at 2 mg/kg, iv measured up to 24 hrs by LC-MS/MS analysis; type: ADME, organism-based; settings: in vivo
[13] = Half life in ICR mouse at 10 mg/kg, po measured up to 24 hrs by LC-MS/MS analysis; type: ADME, organism-based; settings: in vivo
[14] = Tmax in ICR mouse at 2 mg/kg, iv measured up to 24 hrs by LC-MS/MS analysis; type: ADME, organism-based; settings: in vivo
[15] = Tmax in ICR mouse at 10 mg/kg, po measured up to 24 hrs by LC-MS/MS analysis; type: ADME, organism-based; settings: in vivo
[16] = AUC (0 to t) in ICR mouse at 2 mg/kg, iv measured up to 24 hrs by LC-MS/MS analysis; type: ADME, organism-based; settings: in vivo
[17] = AUC (0 to t) in ICR mouse at 10 mg/kg, po measured up to 24 hrs by LC-MS/MS analysis; type: ADME, organism-based; settings: in vivo
[18] = AUC (0 to infinity) in ICR mouse at 2 mg/kg, iv measured up to 24 hrs by LC-MS/MS analysis; type: ADME, organism-based; settings: in vivo
[19] = AUC (0 to infinity) in ICR mouse at 10 mg/kg, po measured up to 24 hrs by LC-MS/MS analysis; type: ADME, organism-based; settings: in vivo
[20] = MRT (0 to t) in ICR mouse at 2 mg/kg, iv measured up to 24 hrs by LC-MS/MS analysis; type: ADME, organism-based; settings: in vivo
[21] = MRT (0 to t) in ICR mouse at 10 mg/kg, po measured up to 24 hrs by LC-MS/MS analysis; type: ADME, organism-based; settings: in vivo
[22] = MRT (0 to infinity) in ICR mouse at 2 mg/kg, iv measured up to 24 hrs by LC-MS/MS analysis; type: ADME, organism-based; settings: in vivo
[23] = MRT (0 to infinity) in ICR mouse at 10 mg/kg, po measured up to 24 hrs by LC-MS/MS analysis; type: ADME, organism-based; settings: in vivo
[24] = Clearance in ICR mouse at 2 mg/kg, iv measured up to 24 hrs by LC-MS/MS analysis; type: ADME, organism-based; settings: in vivo
[25] = Volume of distribution at steady state in ICR mouse at 2 mg/kg, iv measured up to 24 hrs by LC-MS/MS analysis; type: ADME, organism-based; settings: in vivo, read-out: Vdss
[26] = Oral bioavailability in ICR mouse at 10 mg/kg measured up to 24 hrs by LC-MS/MS analysis; type: ADME, organism-based; settings: in vivo
[27] = molecular target: Serine/threonine-protein kinase Chk2 (Homo sapiens) (UniProt O96017); assay: Inhibition of CHK2 (unknown origin) at 500 nM relative to control
Chain of Serine/threonine-protein kinase Chk2 (Homo sapiens) (O96017 whole entry): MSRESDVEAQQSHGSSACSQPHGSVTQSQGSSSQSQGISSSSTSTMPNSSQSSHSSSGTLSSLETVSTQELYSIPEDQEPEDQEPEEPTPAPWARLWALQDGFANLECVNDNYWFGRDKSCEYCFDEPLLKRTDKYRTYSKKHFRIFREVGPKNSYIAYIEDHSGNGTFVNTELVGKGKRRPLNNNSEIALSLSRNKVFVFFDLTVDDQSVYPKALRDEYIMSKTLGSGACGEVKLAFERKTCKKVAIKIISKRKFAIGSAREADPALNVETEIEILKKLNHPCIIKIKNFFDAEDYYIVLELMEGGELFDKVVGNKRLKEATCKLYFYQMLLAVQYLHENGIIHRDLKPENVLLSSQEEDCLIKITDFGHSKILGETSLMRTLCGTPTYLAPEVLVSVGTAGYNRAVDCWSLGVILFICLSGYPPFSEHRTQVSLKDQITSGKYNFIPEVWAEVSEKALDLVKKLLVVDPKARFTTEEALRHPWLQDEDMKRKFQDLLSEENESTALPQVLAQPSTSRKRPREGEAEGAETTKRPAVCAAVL

HT-29 [28] = assay: Antitumor activity against human HT-29 cells xenografted in female BALB/c mouse assessed as tumor growth inhibition at 30 mg/kg, iv administered once daily for 21 days and measured after 3 days by vernier calipers analysis; settings: HT-29, 576 h, read-out: TGI
HT-29 [29] = assay: Antitumor activity against human HT-29 cells xenografted in female BALB/c mouse assessed as tumor growth inhibition at 30 mg/kg, iv administered once daily for 21 days and measured after 3 days in presence of gemcitabine by vernier calipers analysis; settings: HT-29, 576 h, read-out: TGI
[30] = Toxicity in female BALB/c mouse xenografted with human HT-29 cells assessed as change in body weight at 30 mg/kg, iv administered once daily for 21 days and measured after 3 days; type: organism-based; settings: in vivo, 576 h, time 24 day
HT-29 [31] = assay: cells; settings: Homo sapiens, HT-29, 72 h
Description: Antiproliferative activity against human HT-29 cells assessed as inhibition of cell proliferation incubated for 72 hrs by CCK-8 assay

A549 = assay: cells; settings: Homo sapiens, A549, 72 h
Description: Antiproliferative activity against human A549 cells assessed as inhibition of cell proliferation incubated for 72 hrs by CCK-8 assay

OVCAR-3 = assay: cells; settings: Homo sapiens, OVCAR-3, 72 h
Description: Antiproliferative activity against human OVCAR-3 cells assessed as inhibition of cell proliferation incubated for 72 hrs by CCK-8 assay

HL-60 = assay: cells; settings: Homo sapiens, HL-60, 72 h
Description: Antiproliferative activity against human HL-60 cells assessed as inhibition of cell proliferation incubated for 72 hrs by CCK-8 assay

HCT-116 = assay: cells; settings: Homo sapiens, HCT-116, 72 h
Description: Antiproliferative activity against human HCT-116 cells assessed as inhibition of cell proliferation incubated for 72 hrs by CCK-8 assay

A2780 = assay: cells; settings: Homo sapiens, A2780, 72 h
Description: Antiproliferative activity against human A2780 cells assessed as inhibition of cell proliferation incubated for 72 hrs by CCK-8 assay

MDA-MB-468 = assay: cells; settings: Homo sapiens, MDA-MB-468, 72 h
Description: Antiproliferative activity against human MDA-MB-468 cells assessed as inhibition of cell proliferation incubated for 72 hrs by CCK-8 assay

HT-29 [32] = assay: cells; settings: Homo sapiens, HT-29, 72 h; remark: listed apart in the source
Description: Synergistic antiproliferative activity against human HT-29 cells assessed as inhibition of cell proliferation incubated for 72 hrs in presence of gemcitabine by CCK-8 assay

HT-29 [33] = assay: cells; settings: Homo sapiens, HT-29, 72 h; remark: listed apart in the source

For `N#Cc1ncc(Nc2ncc3c(ccc(=O)n3CC(F)F)n2)cc1N[C@@H]1CCNC1`, the IC50 (MV4-11) was 202 nM, the remaining at 0 min [1] was 100% and the remaining at 5 min [2] was 60.1%. The remaining at 0.25 h [3] was 24.4%, the remaining at 0.5 h [4] was 8.93% and the remaining at 1 h [5] was 1.96%. It also gave a half-life [6] of 0.18 h, a microsomal CLint [7] of 129 µL/min/mg and a CLint scaled [8] of 116 mL/min/kg. The C0 at 24 h [9] was 860 ng/mL, the Cmax [10] was 526 ng/mL and the Cmax [11] was 81.1 ng/mL. The half-life [12] was 5.7 h, the half-life [13] was 1.51 h and the Tmax [14] was 4.8 min. For the same compound, the Tmax [15] was 4.8 min, the AUC(0-t) at 24 h [16] was 327 ng·h/mL and the AUC(0-t) at 24 h [17] was 40.7 ng·h/mL. For the same compound, the AUC(0-inf) [18] was 341 ng·h/mL, the AUC(0-inf) [19] was 47.3 ng·h/mL and the MRT last at 24 h [20] was 2.67 h. For the same compound, the MRT last at 24 h [21] was 1 h, the MRT inf [22] was 3.91 h and the MRT inf [23] was 1.65 h. It also gave a clearance [24] of 98.4 mL/min/kg, a Vd [25] of 23.3 L/kg and a bioavailability [26] of 2.77%. For the same compound, the inhibition [27] was 22%, the inhibition in vivo at 30 mg/kg (HT-29 [28]) was 20.6% and the inhibition in vivo at 30 mg/kg (HT-29 [29]) was 42.8%. For the same compound, the Activity [30] was “Non-Toxic”, the IC50 (HT-29 [31]) was 1170 nM and the IC50 (A549) was > 10000 nM. For the same compound, the IC50 (OVCAR-3) was 606 nM, the IC50 (HL-60) was > 10000 nM and the IC50 (HCT-116) was > 10000 nM. For the same compound, the IC50 (A2780) was > 10000 nM, the IC50 (MDA-MB-468) was > 10000 nM and the IC50 (HT-29 [32]) was 63.5 nM. It also gave an IC50 (HT-29 [33]) of 63.5 nM.
